Patent US20240417397A1 (priority 2021, published 2024)

System: Rice blast fungi (Pyricularia oryzae, MAFF101511)
Assay: microbe, parasite or virus in culture
Assay type: cell-based
Conditions: 72 h, read-out: Inhibition rate (%) of elongation length of fungal filaments

Structure (SMILES) | inhibition at 500 ppm [%]
COc1n[nH]c(F)c1C(F)(F)F [Example 2, 3-fluoro-5-methoxy-4-trifluoromethylpyrazole] | 95
COc1n[nH]c(N2CCC(OC)CC2)c1C(F)(F)F [Example 9, 3-methoxy-5-(4-methoxypiperidin-1-yl)-4-trifluoromethyl-1H-pyrazole] | 88
